Results on 53 molecules are retold here after the supplement of paper PMC10949913.

Each structure is given as a SMILES string.

What all share (experiment): area under concentration-response curve (viability) (AUC (a.u.)); higher = less active
What all share (settings): 48 h

Assay [1] has as its system CU-ACC2. The procedure, abridged: (§1)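 Concentration-response curves were fitted to obtain AC50 and area under the curve, keeping inhibitory or non-responding curve classes only. Data came from CellTiter-Glo luminescence, normalised per plate to vehicle and empty-well controls, in three adrenocortical carcinoma cell lines. These were treated in 1,536-well plates with library compounds at 11 concentrations and read after 48 h.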

In assay [2] the test system is CU-ACC1. The procedure, abridged:
as §1

In assay [3] the test system is NCI-H295R. The procedure, abridged: as §1

Regarding `CC1=CC(=CC(=C1C\C2=N\CCN2)C)C(C)(C)C`, in assay [1], the “area under concentration-response curve” value was 595. As for `N#Cc1cc(NC(=O)Nc2nnc(-c3ccncc3)s2)ccc1-c1cn[nH]c1`, the “area under concentration-response curve” value in assay [1] came to 529. Same read-out and setting: for `CC#C[C@]1(O)CC[C@H]2[C@@H]/3CCC/4=C/C(=O)CCC4=C3[C@H](C[C@]12C)C5=CC=C(C=C5)N(C)C` the value was 546; for `CNC(=O)C1=CC=C(C)C(=C1)N2C(=C/C(=C(/Br)C2=O)OCC3=C(F)C=C(F)C=C3)\C`, 547; for `COC1=CC=CC(=C1N)\C2=C\C(=O)C3=C(O2)C=CC=C3`, 591.

As for `C=C1C(=O)OC2/C=C(/C)CC/C=C(/C)CCC12` (stereo not given), the “area under concentration-response curve” value in assay [1] was determined as 598. Take `CC[C@@H](C)[C@H](NC(=O)[C@H](CC1CCCCC1)NC(=O)c1ccno1)C(=O)N1CCC2(CCc3ccccc32)CC1`: the “area under concentration-response curve” value in assay [1] was 118. Still for that read-out and setting: for `NC(=O)c1ccc(-c2nc(-c3ccc4c(c3)OCCO4)c(-c3ccccn3)[nH]2)cc1` the value was 366. On the same count and under the same terms, under `COC1=CC=C(C=C1)C2CC(=N/N2C3=CC=C(C=C3)[S+](N)([O-])=O)\C4=CC=CC=C4` (stereo not given) stands 648; under `CC\1=C/C=C\C=[N]1[Pt](N)(Cl)Cl`, 450. For `O=C(Nc1nnc(-c2ccco2)o1)c1cc(-c2ccccc2)nc2ccccc12`, the “area under concentration-response curve” value in assay [1] turned out to be 576.

Take `CCC(C)(C)C(=O)O[C@H]1C[C@@H](C)\C=C2\C=C/[C@H](C)[C@H](CC[C@@H]3C[C@@H](O)CC(=O)O3)[C@@H]12`: the “area under concentration-response curve” value in assay [2] came out at 399; in assay [3], 565. For the molecule `Cn1cc(-c2ccc3c(c2)CCN3C(=O)Cc2cccc(C(F)(F)F)c2)c2c(N)ncnc21`, the figures for the “area under concentration-response curve” value in assay [2] and in assay [3] were 523 and 577, respectively. As for `CNC(=O)c1cc(Oc2ccc(NC(=O)Nc3cc(C(C)(C)C)nn3-c3ccc4ncccc4c3)c(F)c2)ccn1`, the “area under concentration-response curve” value in assay [2] is 496; in assay [3] it was 561. With `O=C(/C=C/c1ccc(O)cc1)c1ccc(O)cc1O`, the results for the “area under concentration-response curve” value in assay [2] and in assay [3] were 465 and 492, respectively. Regarding `CCN(C1CCOCC1)C2=C(C)C(=CC(=C2)C3=CC=C(CN4CCOCC4)C=C3)C(=O)NC\C5=C(C)\C=C(C)/NC5=O`, the “area under concentration-response curve” value in assay [2] came to 262; in assay [3] it was 249. In the case of `CN(C)CCN1C(=O)c2cccc3cc(NC(N)=O)cc(c23)C1=O`, the results for the “area under concentration-response curve” value in assay [2] and in assay [3] were 521 and 542, respectively. On the same counts, the results for `CC(=O)CC(C1=CC=CC=C1)C/2=C(O)/C3=CC=CC=C3OC2=O` (stereo not given) are 491 and 533. As to `COC/1=C(\CNC(=O)C2=C(C)[N]([C@H](C)C3CCOCC3)C4=CC=CC=C24)C(=O)NC(=C1)/C`, the “area under concentration-response curve” value was found to be 357 in assay [2] and 429 in assay [3].

Take `C=C1C[C@@]2(O)O[C@@]3(C[C@H]2C(C)C)[C@@H](C)CC[C@@H]13`: the “area under concentration-response curve” value in assay [2] was determined as 487; in assay [3] it was 541.

For the molecule `COC(=O)[C@@H]1CC/2=C/C(=O)CC[C@]2(C)[C@@]34O[C@@H]3C[C@@]5(C)[C@@H](CC[C@@]56CCC(=O)O6)[C@H]14`, the results for the “area under concentration-response curve” value in assay [2] and in assay [3] were 355 and 528, respectively.

Regarding `COC(=O)N1CC2(CC2)C[C@H](C(=O)NO)[C@H]1C(=O)N1CCN(c2ccccc2)CC1`, the results for the “area under concentration-response curve” value in assay [2] and in assay [3] were 412 and 470, respectively. For `Cn1c(CCCC(=O)O)nc2cc(N(CCCl)CCCl)ccc21` the same measures were 475 and 540. For `Cc1nc(N)sc1-c1ccnc(Nc2ccc(N3CCOCC3)cc2)n1` the same measures were 400 and 414. On the same counts, the results for `O=C(Nc1nc2ccccc2n1CCN1CCOCC1)c1cccc([N+](=O)[O-])c1` are 527 and 549. For `OC(=O)/C1=C/CCN(CCOC(C2=CC=C(C=C2)C(F)(F)F)C3=CC=C(C=C3)C(F)(F)F)C1`, the “area under concentration-response curve” value in assay [2] was 548; in assay [3], 569. For `O=C(O)c1cc(/N=N/c2ccc(S(=O)(=O)Nc3ccccn3)cc2)ccc1O` the same measures were 505 and 522.

`Cc1csc(-c2nnc(Nc3ccc(Oc4ncccc4-c4ccnc(N)n4)cc3)c3ccccc23)c1`: the “area under concentration-response curve” value came out at 504 in assay [2] and 470 in assay [3]. For `c1ccc(-c2oc3ncnc(NC[C@@H]4CCCO4)c3c2-c2ccccc2)cc1` the same measures were 517 and 572. For `COc1ccc(C2(C#N)CCC(C(=O)O)CC2)cc1OC1CCCC1` (stereo not given), the entries for the “area under concentration-response curve” value in assay [2] and in assay [3] were 548 and 606, respectively. On the same counts, the results for `COc1ccccc1C(=O)Nc1cc2c(cc1N1CCNC[C@H]1C)n(C)c(=O)n2C` are 479 and 550.

For `O=C(NOCCO)c1cc(CN2OCCCC2=O)c(F)c(F)c1Nc1ccc(I)cc1F`, the “area under concentration-response curve” value in assay [2] and in assay [3] was 267 throughout. Consider `CCCCCC[C@H]1C(=O)O[C@H](C)[C@H](NC(=O)c2cccc(NC=O)c2O)C(=O)O[C@@H](C)[C@@H]1OC(=O)CC(C)C`, for which the “area under concentration-response curve” value is 491 in assay [2] and 467 in assay [3]. On the same counts, the results for `OCCN1CCN(CCCN2c3ccccc3Sc3ccc(C(F)(F)F)cc32)CC1` are 432 and 279. On the same counts, the results for `NC\1=N\C(=O)N(\C=C1F)[C@H]2C[C@H](O)[C@@H](CO)O2` are 334 and 416. On the same counts, the results for `CCCN1CCN(c2ccc(C(=O)NC3(C(=O)NCC#N)CCCCC3)cc2)CC1` are 375 and 299. Turning to `Cc1ncc(OC[C@@]2(c3cccc(F)c3)C[C@H]2C(=O)Nc2ccc(F)cn2)c(C)n1`, the entries for the “area under concentration-response curve” value in assay [2] and in assay [3] were 457 and 516, respectively. Consider `O=[S+]([O-])(CCSSCC[S+](=O)([O-])[O][Na])[O][Na]`, for which the “area under concentration-response curve” value in assay [2] came out at 469; in assay [3], 544. On the same counts, the results for `COc1cc(C(=O)O)ccc1NC(=O)[C@@H]1N[C@@H](CC(C)(C)C)[C@](C#N)(c2ccc(Cl)cc2F)[C@H]1c1cccc(Cl)c1F` are 469 and 540. On the same counts, the results for `N[C@H](CSC(c1ccccc1)(c1ccccc1)c1ccccc1)C(=O)O` are 529 and 564.

`CN1C(=O)C[C@H](C(=O)N[C@@H](Cc2cnc[nH]2)C(=O)N2CCC[C@H]2C(N)=O)NC1=O`: the “area under concentration-response curve” value in assay [2] amounted to 537; in assay [3], 589. Turning to `COC1=C(OC)C=C2C(=C1)C(=O)N(CCCN3CCOCC3)\C4=C2\C(=O)C5=C4C=C6OCOC6=C5`, the “area under concentration-response curve” value in assay [2] was 400; in assay [3], 463.

Regarding `Cn1cc(-c2cnn3c(N)c(Br)c(C4CCCNC4)nc23)cn1` (stereo not given), the “area under concentration-response curve” value came out at 516 in assay [2] and 557 in assay [3]. In the case of `C[C@@H](Nc1ncnc2[nH]c(-c3ccc(O)cc3)cc12)c1ccccc1`, the “area under concentration-response curve” value in assay [2] is 300; in assay [3], 328. In the case of `CNC(=O)c1ccc2c(c1)NC(=O)/C2=C(\Nc1cccc(CN(C)C)c1)c1ccccc1`, the “area under concentration-response curve” value in assay [2] came out at 323; in assay [3], 441. On the same counts, the results for `CC1=CC=C(C=C1)N(C\C2=N\CCN2)C3=CC=CC(=C3)O` are 479 and 518. For `CCOc1ccc(Cc2cc([C@@H]3O[C@H](CO)[C@@H](O)[C@H](O)[C@H]3O)ccc2Cl)cc1` the same measures were 464 and 494.

Turning to `CCNC(=O)Nc1ncc(-c2cc(-c3c(C)cc(OC)cc3C)nc(-c3cnccn3)n2)s1`, the “area under concentration-response curve” value in assay [2] amounted to 482; in assay [3] it was 520. On the same counts, the results for `O=C(O)/C(S)=C/c1ccc(I)cc1` are 368 and 459. On the same counts, the results for `Cc1ccccc1C(=O)Nc1ccc(C(=O)N2CCCC(O)c3cc(Cl)ccc32)c(C)c1` (stereo not given) are 484 and 536.

`c1cnc2cc3c(cc2n1)C1CNCC3C1`: the results for the “area under concentration-response curve” value in assay [2] and in assay [3] were 536 and 563, respectively. Regarding `CC1(C)CN(C(=O)c2ccc(-c3cccc4nc(NC(=O)C5CC5)nn34)cc2)C1`, the “area under concentration-response curve” value in assay [2] was 345; in assay [3], 381. On to `c1ccc2c(Oc3nc(Nc4ccc(N5CCOCC5)cc4)c4ncn(C5CCCCC5)c4n3)cccc2c1`, for which the “area under concentration-response curve” value stood at 481 in assay [2] and 535 in assay [3].
